{"source": "paper PMC11509018", "about": "“Evaluation of the Role of Tanshinone I in an In Vitro System of Charcot-Marie-Tooth Disease Type 2N” (International Journal of Molecular Sciences, 2024)", "molecular_target": "T1, AlaRS E337K binding to Nrp1 (Homo sapiens, UniProt P49588, E337K)", "T1 construct": "expressed in transfected cells", "T1 sequence (P49588 1-968 E337K)": "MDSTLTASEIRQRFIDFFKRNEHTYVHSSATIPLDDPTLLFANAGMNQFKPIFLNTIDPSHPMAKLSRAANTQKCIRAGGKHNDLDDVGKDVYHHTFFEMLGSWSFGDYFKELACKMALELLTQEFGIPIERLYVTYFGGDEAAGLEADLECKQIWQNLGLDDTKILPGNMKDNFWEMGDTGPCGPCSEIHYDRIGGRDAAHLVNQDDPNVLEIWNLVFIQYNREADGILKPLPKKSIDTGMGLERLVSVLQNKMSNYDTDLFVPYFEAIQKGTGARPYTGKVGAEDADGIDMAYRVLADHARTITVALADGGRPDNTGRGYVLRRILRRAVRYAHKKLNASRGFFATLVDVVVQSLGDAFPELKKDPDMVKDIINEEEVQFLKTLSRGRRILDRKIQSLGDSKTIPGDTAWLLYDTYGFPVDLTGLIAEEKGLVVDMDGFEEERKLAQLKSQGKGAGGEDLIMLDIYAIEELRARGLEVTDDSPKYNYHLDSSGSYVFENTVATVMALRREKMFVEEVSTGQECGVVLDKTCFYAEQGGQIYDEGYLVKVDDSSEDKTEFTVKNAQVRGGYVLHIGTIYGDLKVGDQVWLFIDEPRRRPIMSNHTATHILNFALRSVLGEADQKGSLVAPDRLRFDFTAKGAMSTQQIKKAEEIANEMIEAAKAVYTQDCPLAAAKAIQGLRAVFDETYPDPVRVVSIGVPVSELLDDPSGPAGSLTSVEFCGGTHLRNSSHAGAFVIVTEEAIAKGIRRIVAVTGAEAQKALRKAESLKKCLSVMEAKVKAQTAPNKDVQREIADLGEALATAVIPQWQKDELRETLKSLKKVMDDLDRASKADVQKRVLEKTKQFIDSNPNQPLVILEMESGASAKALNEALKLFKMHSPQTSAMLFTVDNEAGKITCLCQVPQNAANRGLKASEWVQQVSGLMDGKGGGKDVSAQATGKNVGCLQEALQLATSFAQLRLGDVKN", "test": "Co-IP of HA-AlaRS mutant with Nrp1 in transfected cells", "format": "cell-based", "conditions": "20 µM Tanshinone I for 24 h, ImageJ, average of three repeats"}
{"smiles": "Cc1coc2c1C(=O)C(=O)c1c-2ccc2c(C)cccc12", "note": "[Tanshinone I]", "values": [{"measurement": "Mean density band (E337K), relative quantification of AlaRS mutant immunoprecipitated", "result": 0.62}]}
